From US20080096894A1, “Anti-Bacterial Compounds” (ASTON UNIVERSITY, priority 2005, published 2008)
Where two headings read alike, the source gives them in different places.

Assays:
[1] = system: human mononuclear leucocytes (MNL, white blood cells); experiment: direct leucocyte toxicity, tryptan blue exclusion, 18 hours; type: cell-based
How it was run: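 Human mononuclear leucocytes exposed to test compound for 18 hours. Cell death scored by trypan blue exclusion, the dye staining dead cells only.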

Micrococcus roseus [2] = experiment: MIC, agar dilution, multipoint inoculator; type: cell-based; settings: Kocuria rosea
Protocol: (§1) This activity was measured using a multipoint inoculator method as follows. The MIC for each compound was measured using an agar dilution method (Onda, H., et al., Int. J. Antimicrob. Agents. 18, 263 (2001)) (Mueller Hinton agar) by means of a multipoint inoculator delivering 10^4 colony forming units per spot.
(§2) 4Pycq was also tested against the following bacteria, using the multipoint inoculator method.

Bacillus megarerium [3] = experiment: MIC, agar dilution, multipoint inoculator; type: cell-based
Protocol: as §1, §2

Bacillus cereus [4] = experiment: MIC, agar dilution, multipoint inoculator; type: cell-based
Protocol: as §1, §2

Bacillus polymyxa = experiment: MIC, agar dilution, multipoint inoculator; type: cell-based; settings: Paenibacillus polymyxa
Protocol: as §1, §2

S. aureus = experiment: MIC, agar dilution, multipoint inoculator; type: cell-based, Staphylococcus aureus; settings: Staphylococcus aureus, upper value of MIC reading, read-out: MIC
How it was run: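 Each strain was spot-inoculated (10^4 CFU) onto Mueller Hinton agar plates carrying compound dilutions, using a multipoint device, and the MIC was recorded.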

[5] = system: vancomycin resistant enterococci; experiment: MIC, agar dilution, multipoint inoculator; type: cell-based; settings: one value printed for the seven vancomycin resistant enterococci cultures of Table 5; read-out: MIC
Protocol: as §1
It will be noted that compound 4PYcq was active against all strains of MRSA as well as all other Gram positive bacteria. For this reason it was further tested against some vancomycin resistant enterococci, using the multipoint inoculator method described above. It can be seen from Table 5 that the high level activity was retained.

Micrococcus roseus [6] = experiment: MIC, doubling dilution in 96-well microtitre plate; type: cell-based
Protocol: (§3) The compound was tested as follows. […] The wells were inoculated with organism ([…] of medium containing 10^6 cfu/mL) and the plates were incubated at 37° C. overnight. Where growth of organism occurred this was observed as a small button when viewed from underneath the plate. The MIC was determined as the lowest concentration inhibiting growth.

[7] = system: Staphylococcus aureus (MRSA) 96-7475; experiment: MIC, doubling dilution in 96-well microtitre plate; type: cell-based
Protocol: as §3

[8] = system: Enterobacter cloacae ATCC 13047; experiment: MIC, doubling dilution in 96-well microtitre plate; type: cell-based
Protocol: as §3

Citrobacter freundii = experiment: MIC, doubling dilution in 96-well microtitre plate; type: cell-based
Protocol: as §3

[9] = system: Enterococcus faecalis NCTC 5957; experiment: MIC, doubling dilution in 96-well microtitre plate; type: cell-based
Protocol: as §3

Bacillus megarerium [10] = experiment: MIC, doubling dilution in 96-well microtitre plate; type: cell-based
Protocol: as §3

[11] = system: Streptococcus bovis NCTC 11436; experiment: MIC, doubling dilution in 96-well microtitre plate; type: cell-based
Protocol: as §3

[12] = system: Staphylococcus aureus W11 MRSA; experiment: MIC, doubling dilution in 96-well microtitre plate; type: cell-based
Protocol: as §3

[13] = system: Proteus mirabilis NCTC 5887; experiment: MIC, doubling dilution in 96-well microtitre plate; type: cell-based
Protocol: as §3

Bacillus subtilis = experiment: MIC, doubling dilution in 96-well microtitre plate; type: cell-based
Protocol: as §3

Micrococcus luteus = experiment: MIC, doubling dilution in 96-well microtitre plate; type: cell-based
Protocol: as §3

Salmonella Cambridge = experiment: MIC, doubling dilution in 96-well microtitre plate; type: cell-based
Protocol: as §3

[14] = system: Pseudomonas aeruginosa ATCC 15692 (PA01); experiment: MIC, doubling dilution in 96-well microtitre plate; type: cell-based
Protocol: as §3

[15] = system: Staphylococcus epidermidis NCTC 11047; experiment: MIC, doubling dilution in 96-well microtitre plate; type: cell-based
Protocol: as §3

Moraxella catarrhalis = experiment: MIC, doubling dilution in 96-well microtitre plate; type: cell-based
Protocol: as §3

Salmonella enteriditis = experiment: MIC, doubling dilution in 96-well microtitre plate; type: cell-based
Protocol: as §3

Hafnia alvei = experiment: MIC, doubling dilution in 96-well microtitre plate; type: cell-based
Protocol: as §3

[16] = system: Klebsiella pneumoniae ATCC 33495; experiment: MIC, doubling dilution in 96-well microtitre plate; type: cell-based
Protocol: as §3

[17] = system: Staphylococcus aureus NCTC 10788; experiment: MIC, doubling dilution in 96-well microtitre plate; type: cell-based
Protocol: as §3

Salmonella banana = experiment: MIC, doubling dilution in 96-well microtitre plate; type: cell-based
Protocol: as §3

Salmonella arizonae = experiment: MIC, doubling dilution in 96-well microtitre plate; type: cell-based
Protocol: as §3

Enterococcus faecium = experiment: MIC, doubling dilution in 96-well microtitre plate; type: cell-based; settings: Enterococcus faecium ATCC 10541
Protocol: as §3

[18] = system: Staphylococcus aureus NCTC 6571; experiment: MIC, doubling dilution in 96-well microtitre plate; type: cell-based
Protocol: as §3

Bacillus cereus [19] = experiment: MIC, doubling dilution in 96-well microtitre plate; type: cell-based
Protocol: as §3

[20] = system: Citrobacter diversus 2046E; experiment: MIC, doubling dilution in 96-well microtitre plate; type: cell-based
Protocol: as §3

[21] = system: Escherichia coli olli-blue; experiment: MIC, doubling dilution in 96-well microtitre plate; type: cell-based
Protocol: as §3

CC(C)(C)c1cc(/C=N/N=C(\N)c2ccncc2)c(O)c(C(C)(C)C)c1 [Compound 4PYcq]
4 µg/mL: MIC (S. aureus; 18 h, S. aureus Cowan 1) | MIC (S. aureus; NCTC6571, 18 h, S. aureus NCTC 6571) | MIC (S. aureus; NCTC10788, 18 h, S. aureus NCTC 10788)
very toxic to leucocytes: direct MNL toxicity (in words) [1]
2 to 4 µg/mL: MIC (Bacillus cereus [4]) | MIC (Bacillus polymyxa) | MIC [5]
0.5 to 1 µg/mL: MIC (Micrococcus roseus [2]) | MIC (Bacillus megarerium [3])

NC(=NN=Cc1ccc([N+](=O)[O-])o1)c1cc[n+]([O-])cc1 (mixture of isomers) [Compound 4PYOfi]
16 to 32 µg/mL: MIC (Salmonella Cambridge) | MIC (Moraxella catarrhalis) | MIC (Salmonella arizonae) | MIC [21]
8 to 16 µg/mL: MIC (Micrococcus roseus [6]) | MIC (Bacillus megarerium [10]) | MIC (Bacillus subtilis) | MIC (Micrococcus luteus) | MIC (Enterococcus faecium) | MIC (Bacillus cereus [19])
4 to 8 µg/mL: MIC [7] | MIC [9] | MIC [11] | MIC [12] | MIC [17] | MIC (Salmonella banana) | MIC [18]
2 to 4 µg/mL: MIC [15]
32 to 64 µg/mL: MIC [8] | MIC (Citrobacter freundii) | MIC [13] | MIC [14] | MIC (Salmonella enteriditis) | MIC (Hafnia alvei) | MIC [16] | MIC [20]
